# What was measured:
# 5-Fluorouracil = compound: O=c1[nH]cc(F)c(=O)[nH]1 [5-Fluorouracil]; conditions: max 20 µM
# Procedure, shortened: (§1)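 Cancer cell lines were plated in 1536-well plates in 7.5 μl of DMEM/F12 or RPMI with 10% FBS and kept 24 hours at 37°C and 5% CO2 before 72 hours of dosing, with final DMSO typically 0.2%. CellTiter-Glo 2.0 luminescence measured viability, scaled between blank-well and DMSO-well means. Dose responses were fitted to a two-parameter logistic curve with a non-linear mixed effects model. This fit gives the single-agent IC50.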
# Trametinib = compound: CC(=O)Nc1cccc(-n2c(=O)n(C3CC3)c(=O)c3c(Nc4ccc(I)cc4F)n(C)c(=O)c(C)c32)c1 [Trametinib]; conditions: max 1 µM
# Procedure, shortened: as §1
# AZD8186 = compound: C[C@@H](Nc1cc(F)cc(F)c1)c1cc(C(=O)N(C)C)cc2c(=O)cc(N3CCOCC3)oc12 [AZD8186]; conditions: max 10 µM
# Procedure, shortened: as §1
# Lapatinib = compound: CS(=O)(=O)CCNCc1ccc(-c2ccc3ncnc(Nc4ccc(OCc5cccc(F)c5)c(Cl)c4)c3c2)o1 [Lapatinib]; conditions: max 10 µM
# Procedure, shortened: as §1
# AZD1775 = compound: C=CCn1c(=O)c2cnc(Nc3ccc(N4CCN(C)CC4)cc3)nc2n1-c1cccc(C(C)(C)O)n1 [AZD1775]; conditions: max 3 µM
# Procedure, shortened: as §1
# MK-2206 = compound: NC1(c2ccc(-c3nc4ccn5c(=O)[nH]nc5c4cc3-c3ccccc3)cc2)CCC1 [MK-2206]; conditions: max 10 µM
# Procedure, shortened: as §1
# AZD0156 = compound: CN(C)CCCOc1ccc(-c2ccc3ncc4c(c3c2)n(C2CCOCC2)c(=O)n4C)cn1 [AZD0156]; conditions: max 3 µM
# Procedure, shortened: as §1
# AZD2811 = compound: CCN(CCO)CCCOc1ccc2c(Nc3cc(CC(=O)Nc4cccc(F)c4)[nH]n3)ncnc2c1 [AZD2811]; conditions: max 1 µM
# Procedure, shortened: as §1
# Doxorubicin = compound: COc1cccc2c1C(=O)c1c(O)c3c(c(O)c1C2=O)C[C@@](O)(C(=O)CO)C[C@@H]3O[C@H]1C[C@H](N)[C@H](O)[C@H](C)O1 [Doxorubicin]; conditions: max 1 µM
# Procedure, shortened: as §1
# AZD6738 = compound: C[C@@H]1COCCN1C2=NC(=NC(=C2)C3(CC3)[S@](=N)(=O)C)C4=C5C=CNC5=NC=C4 [AZD6738]; conditions: max 10 µM
# Procedure, shortened: as §1
# AZD7648 = compound: Cc1cc2ncnn2cc1Nc1ncc2c(n1)n(C1CCOCC1)c(=O)n2C [AZD7648]; conditions: max 10 µM
# Procedure, shortened: as §1
# SN-38 = compound: CCc1c2c(nc3ccc(O)cc13)-c1cc3c(c(=O)n1C2)COC(=O)[C@]3(O)CC [SN-38]; conditions: max 0.3 µM
# Procedure, shortened: as §1
# Selumetinib = compound: Cn1cnc2c(F)c(Nc3ccc(Br)cc3Cl)c(C(=O)NOCCO)cc21 [Selumetinib]; conditions: max 10 µM
# Procedure, shortened: as §1
# SG3199 = compound: CC1=CN2[C@@H](C1)C=NC3=CC(=C(C=C3C2=O)OC)OCCCCCOC4=C(C=C5C(=C4)N=C[C@@H]6CC(=CN6C5=O)C)OC [SG3199]; conditions: max 0.001 µM
# Procedure, shortened: as §1
# AZD1390 = compound: CC(C)n1c(=O)n(C)c2cnc3cc(F)c(-c4ccc(OCCCN5CCCCC5)nc4)cc3c21 [AZD1390]; conditions: max 0.3 µM
# Procedure, shortened: as §1
# SRA737 = compound: N#Cc1cnc(Nc2cc(NC[C@H]3CNCCO3)c(C(F)(F)F)cn2)cn1 [SRA737]; conditions: max 10 µM
# Procedure, shortened: as §1
# Carboplatin = compound: C1CC(C1)(C(=O)[O-])C(=O)[O-].N.N.[Pt+2] [Carboplatin]; conditions: max 10 µM
# Procedure, shortened: as §1
# Savolitinib = compound: C[C@@H](c1ccc2nccn2c1)n1nnc2ncc(-c3cnn(C)c3)nc21 [Savolitinib]; conditions: max 1 µM
# Procedure, shortened: as §1
# AZD4320 = compound: CN(CC[C@H](CSC1=CC=CC=C1)NC2=C(C=C(C=C2)S(=O)(=O)NC(=O)C3=CC=C(C=C3)N4CCC(CC4)[C@H](C5=CC=CC=C5C6=CC=C(C=C6)Cl)O)S(=O)(=O)C(F)(F)F)CCO [AZD4320]; conditions: max 1 µM
# Procedure, shortened: as §1
# Alisertib = compound: COc1cc(Nc2ncc3c(n2)-c2ccc(Cl)cc2C(c2c(F)cccc2OC)=NC3)ccc1C(=O)O [Alisertib]; conditions: max 10 µM
# Procedure, shortened: as §1
# Venetoclax = compound: CC1(C)CCC(CN2CCN(c3ccc(C(=O)NS(=O)(=O)c4ccc(NCC5CCOCC5)c([N+](=O)[O-])c4)c(Oc4cnc5[nH]ccc5c4)c3)CC2)=C(c2ccc(Cl)cc2)C1 [Venetoclax]; conditions: max 1 µM
# Procedure, shortened: as §1
# Taselisib = compound: Cc1nc(-c2cn3c(n2)-c2ccc(-c4cnn(C(C)(C)C(N)=O)c4)cc2OCC3)n(C(C)C)n1 [Taselisib]; conditions: max 10 µM
# Procedure, shortened: as §1
# [1] = compound: O=C(Nc1ccc2[nH]nc(-c3ccncc3)c2c1)[C@@H]1CCN(CC(=O)N2CCN(c3ccc(-c4ncccn4)cc3)CC2)C1; conditions: max 5 µM
# Procedure, shortened: as §1
# Crizotinib = compound: C[C@@H](Oc1cc(-c2cnn(C3CCNCC3)c2)cnc1N)c1c(Cl)ccc(F)c1Cl [Crizotinib]; conditions: max 10 µM
# Procedure, shortened: as §1
# Paclitaxel = compound: CC(=O)O[C@H]1C(=O)[C@@]2(C)[C@H]([C@H](OC(=O)c3ccccc3)[C@]3(O)C[C@H](OC(=O)[C@H](O)[C@@H](NC(=O)c4ccccc4)c4ccccc4)C(C)=C1C3(C)C)[C@]1(OC(C)=O)CO[C@@H]1C[C@@H]2O [Paclitaxel]; conditions: max 3 µM
# Procedure, shortened: as §1
# Etoposide = compound: COc1cc([C@@H]2c3cc4c(cc3[C@@H](O[C@@H]3O[C@@H]5CO[C@@H](C)O[C@H]5[C@H](O)[C@H]3O)[C@H]3COC(=O)[C@H]23)OCO4)cc(OC)c1O [Etoposide]; conditions: max 10 µM
# Procedure, shortened: as §1
# Gefitinib = compound: COc1cc2ncnc(Nc3ccc(F)c(Cl)c3)c2cc1OCCCN1CCOCC1 [Gefitinib]; conditions: max 10 µM
# Procedure, shortened: as §1
# Prexasertib = compound: COc1cccc(OCCCN)c1-c1cc(Nc2cnc(C#N)cn2)n[nH]1 [Prexasertib]; conditions: max 1 µM
# Procedure, shortened: as §1
# Gemcitabine = compound: Nc1ccn([C@@H]2O[C@H](CO)[C@@H](O)C2(F)F)c(=O)n1 [Gemcitabine]; conditions: max 0.3 µM
# Procedure, shortened: as §1
# AZD5991 = compound: Cc1c2c(nn1C)CSCc1cc(n(C)n1)CSc1cc(c3ccccc3c1)OCCCc1c(C(=O)O)n(C)c3c-2c(Cl)ccc13 [AZD5991]; conditions: max 1 µM
# Procedure, shortened: as §1
# Palbociclib = compound: CC(=O)c1c(C)c2cnc(Nc3ccc(N4CCNCC4)cn3)nc2n(C2CCCC2)c1=O [Palbociclib]; conditions: max 10 µM
# Procedure, shortened: as §1
# Olaparib = compound: O=C(c1cc(Cc2n[nH]c(=O)c3ccccc23)ccc1F)N1CCN(C(=O)C2CC2)CC1 [Olaparib]; conditions: max 10 µM
# Procedure, shortened: as §1
# Dasatinib = compound: CC1=C(C(=CC=C1)Cl)NC(=O)C2=CN=C(S2)NC3=CC(=NC(=N3)C)N4CCN(CC4)CCO [Dasatinib]; conditions: max 2 µM
# Procedure, shortened: as §1
# AZD5153 = compound: COc1nnc2ccc(N3CCC(c4ccc(OCCN5CCN(C)C(=O)[C@H]5C)cc4)CC3)nn12 [AZD5153]; conditions: max 1 µM
# Procedure, shortened: as §1
# AZD5363 = compound: C1CN(CCC1(C(=O)N[C@@H](CCO)C2=CC=C(C=C2)Cl)N)C3=NC=NC4=C3C=CN4 [AZD5363]; conditions: max 10 µM
# Procedure, shortened: as §1
Cell Line,"IC50, cell viability 72 h (5-Fluorouracil)","IC50, cell viability 72 h (Trametinib)","IC50, cell viability 72 h (AZD8186)","IC50, cell viability 72 h (Lapatinib)","IC50, cell viability 72 h (AZD1775)","IC50, cell viability 72 h (MK-2206)","IC50, cell viability 72 h (AZD0156)","IC50, cell viability 72 h (AZD2811)","IC50, cell viability 72 h (Doxorubicin)","IC50, cell viability 72 h (AZD6738)","IC50, cell viability 72 h (AZD7648)","IC50, cell viability 72 h (SN-38)","IC50, cell viability 72 h (Selumetinib)","IC50, cell viability 72 h (SG3199)","IC50, cell viability 72 h (AZD1390)","IC50, cell viability 72 h (SRA737)","IC50, cell viability 72 h (Carboplatin)","IC50, cell viability 72 h (Savolitinib)","IC50, cell viability 72 h (AZD4320)","IC50, cell viability 72 h (Alisertib)","IC50, cell viability 72 h (Venetoclax)","IC50, cell viability 72 h (Taselisib)","IC50, cell viability 72 h [1]","IC50, cell viability 72 h (Crizotinib)","IC50, cell viability 72 h (Paclitaxel)","IC50, cell viability 72 h (Etoposide)","IC50, cell viability 72 h (Gefitinib)","IC50, cell viability 72 h (Prexasertib)","IC50, cell viability 72 h (Gemcitabine)","IC50, cell viability 72 h (AZD5991)","IC50, cell viability 72 h (Palbociclib)","IC50, cell viability 72 h (Olaparib)","IC50, cell viability 72 h (Dasatinib)","IC50, cell viability 72 h (AZD5153)","IC50, cell viability 72 h (AZD5363)"
DOK (Oral Cavity Carcinoma),> 20000 nM,328 nM,> 10000 nM,5760 nM,1260 nM,> 10000 nM,> 3000 nM,> 1000 nM,> 1000 nM,> 10000 nM,> 10000 nM,169 nM,3660 nM,> 1 nM,> 300 nM,> 10000 nM,> 10000 nM,> 1000 nM,> 1000 nM,4510 nM,> 1000 nM,253 nM,633 nM,> 10000 nM,5.13 nM,> 10000 nM,> 10000 nM,> 1000 nM,> 300 nM,> 1000 nM,> 10000 nM,> 10000 nM,165 nM,652 nM,9610 nM
EW-22 (Ewing's Sarcoma),> 20000 nM,> 1000 nM,> 10000 nM,> 10000 nM,694 nM,> 10000 nM,> 3000 nM,78.8 nM,64.8 nM,1400 nM,> 10000 nM,1.31 nM,> 10000 nM,> 1 nM,> 300 nM,3010 nM,> 10000 nM,> 1000 nM,178 nM,563 nM,720 nM,936 nM,> 5000 nM,3930 nM,19.2 nM,1150 nM,> 10000 nM,7.62 nM,6.06 nM,> 1000 nM,> 10000 nM,1730 nM,> 2000 nM,982 nM,> 10000 nM
FU-OV-1 (Ovarian Carcinoma),> 20000 nM,–,> 10000 nM,> 10000 nM,> 3000 nM,> 10000 nM,> 3000 nM,> 1000 nM,–,> 10000 nM,> 10000 nM,> 300 nM,> 10000 nM,–,> 300 nM,> 10000 nM,> 10000 nM,> 1000 nM,> 1000 nM,> 10000 nM,> 1000 nM,1090 nM,3800 nM,> 10000 nM,> 3000 nM,> 10000 nM,> 10000 nM,694 nM,> 300 nM,> 1000 nM,> 10000 nM,> 10000 nM,1480 nM,511 nM,> 10000 nM
H4 (Low Grade Glioma),9690 nM,> 1000 nM,3800 nM,> 10000 nM,108 nM,> 10000 nM,> 3000 nM,> 1000 nM,157 nM,3600 nM,> 10000 nM,23.3 nM,> 10000 nM,> 1 nM,> 300 nM,> 10000 nM,> 10000 nM,> 1000 nM,> 1000 nM,312 nM,> 1000 nM,3680 nM,> 5000 nM,3000 nM,32.4 nM,2000 nM,> 10000 nM,60.4 nM,22.3 nM,> 1000 nM,6450 nM,> 10000 nM,> 2000 nM,164 nM,6250 nM
HCC38 (Breast Carcinoma),> 20000 nM,> 1000 nM,> 10000 nM,> 10000 nM,430 nM,> 10000 nM,> 3000 nM,> 1000 nM,> 1000 nM,> 10000 nM,> 10000 nM,69.5 nM,> 10000 nM,> 1 nM,> 300 nM,> 10000 nM,> 10000 nM,> 1000 nM,503 nM,> 10000 nM,> 1000 nM,> 10000 nM,> 5000 nM,> 10000 nM,296 nM,> 10000 nM,> 10000 nM,80.4 nM,172 nM,> 1000 nM,> 10000 nM,> 10000 nM,> 2000 nM,> 1000 nM,> 10000 nM
TC-YIK (Other Solid Carcinomas),> 20000 nM,156 nM,> 10000 nM,> 10000 nM,576 nM,> 10000 nM,> 3000 nM,21.9 nM,–,1930 nM,> 10000 nM,1.86 nM,7130 nM,–,> 300 nM,4370 nM,> 10000 nM,> 1000 nM,57 nM,–,> 1000 nM,> 10000 nM,2730 nM,2500 nM,4.02 nM,1640 nM,> 10000 nM,–,31.3 nM,> 1000 nM,> 10000 nM,> 10000 nM,> 2000 nM,20.2 nM,> 10000 nM

# Reference: the supplement of paper PMC11061612
